Data on nine molecules can be found in patent US8846685B2, “Human protein tyrosine phosphatase inhibitors and methods of use” (Aerpio Therapeutics Inc., priority 2006, dated 2014).

The target in this experiment is T1, PTP1B (Homo sapiens, UniProt P18031).
T1 sequence (P18031 1-435): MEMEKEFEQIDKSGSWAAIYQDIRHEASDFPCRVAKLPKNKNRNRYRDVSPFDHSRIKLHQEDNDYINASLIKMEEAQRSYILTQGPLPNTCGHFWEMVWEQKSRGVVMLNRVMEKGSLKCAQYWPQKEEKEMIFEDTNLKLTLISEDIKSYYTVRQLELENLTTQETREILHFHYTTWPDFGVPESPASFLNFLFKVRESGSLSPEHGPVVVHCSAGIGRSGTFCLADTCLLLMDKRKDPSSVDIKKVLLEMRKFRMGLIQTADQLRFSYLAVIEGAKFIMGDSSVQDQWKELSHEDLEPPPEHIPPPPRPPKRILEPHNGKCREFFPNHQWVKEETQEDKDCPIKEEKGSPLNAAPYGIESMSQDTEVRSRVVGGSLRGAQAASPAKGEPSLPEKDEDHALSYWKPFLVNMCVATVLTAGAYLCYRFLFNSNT
The experiment can be described thus: PTP1B activity (IC50). It counts as biochemical.
What is called IC50 is the concentration that gives 50% inhibition. Low readings indicate higher potency, high ones lower potency. `COC(=O)N[C@@H](Cc1ccccc1)C(=O)N[C@@H](Cc1ccc(NS(=O)(=O)O)cc1)c1nc(-c2ccsc2)cs1` [compound 73] showed an IC50 of 0.9 µM.

In turn, `COC(=O)N[C@@H](Cc1ccccc1)C(=O)N[C@@H](Cc1ccc(NS(=O)(=O)O)cc1)c1cscn1` [compound 76] showed an IC50 of 0.37 µM.

`COC(=O)N[C@@H](Cc1ccccc1)C(=O)N[C@@H](Cc1ccc(NS(=O)(=O)O)cc1)c1csc(-c2ccc(-c3ccccn3)s2)n1` [compound 77] displayed an IC50 of 0.51 µM.

The molecule `COC(=O)N[C@@H](Cc1ccccc1)C(=O)N[C@@H](Cc1ccc(NS(=O)(=O)O)cc1)c1nc(C)c(-c2ccccc2)s1` [compound 78] yielded an IC50 of 0.17 µM.

Turning to `COC(=O)N[C@@H](Cc1ccccc1)C(=O)N[C@@H](Cc1ccc(NS(=O)(=O)O)cc1)c1nc2ccccc2s1` [compound 79], the IC50 came out at 0.74 µM.

Turning to `CCc1csc([C@H](Cc2ccc(NS(=O)(=O)O)cc2)NC(=O)[C@H](Cc2ccccc2)NC(=O)CNC(=O)OC)n1` [compound 80], inhibition was half-maximal at 0.3 µM (IC50).

Molecule `CCc1cnc([C@H](Cc2ccc(NS(=O)(=O)O)cc2)NC(=O)[C@H](Cc2ccccc2)N(C)C(=O)OC)s1` [compound 81] displayed an IC50 of 0.64 µM.

`CCc1nc([C@H](Cc2ccc(NS(=O)(=O)O)cc2)NC(=O)[C@H](Cc2ccccc2)N(C)C(=O)OC)cs1` [compound 82] had an IC50 of 0.7 µM. This IC50 and that of the molecule before are within 1.5-fold of each other.

The molecule `COC(=O)N(C)[C@@H](Cc1ccccc1)C(=O)N[C@@H](Cc1ccc(NS(=O)(=O)O)cc1)c1csc(-c2cccs2)n1` [compound 83] displayed an IC50 of 13.2 µM.
